Assay: Solubility of the dye in methyl ethyl ketone (MEK)
Assay type: physicochemical
Settings: dye dissolved in methyl ethyl ketone; wt % at 25° C.
Experimental: An anionic dye of the present invention dissolving in an amount of not less than 1% indicates an anionic dye dissolving in methyl ethyl ketone not less than 1 wt % at 25° C. More preferably, an anionic dye dissolving in methyl ethyl ketone in an amount of not less than 1.5 wt %. And still more preferably, it is not less than 2 wt %, and specifically preferably, it is not less than 2.5 wt %.

With `Cn1c(-c2ccccc2)c(/C=C/C2=[N+](C)c3cc(Cl)ccc3C2(C)C)c2ccccc21` [Dye2 (cation)] the “MEK Solubility (%)” value was 1%.

For `CCCCN1C(=O)C(=C2C=C(C)c3ccc(N(CC)CC)cc3O2)C(=O)N(CCCC)C1=S` [Dye1 (nonion)], the “MEK Solubility (%)” value was 2%.

Reference: US7252926B2, “Planographic printing plate material and preparing process of planographic printing plate” (Konica Minolta Medical & Graphic, Inc., priority 2003, dated 2007)
